Publication PMC5218480 (PLoS ONE, 2017)

Tested on: MV-4-11 cells
Assay: Gene expression microarray analysis (Affymetrix PrimeView) and GSEA
Assay type: cell-based, human
Parameters: RFU PODN (11730768_x_at) / Fold change /veh PODN (11730768_x_at) / RFU LINC00158 (11744669_a_at) / Fold change /veh LINC00158 (11744669_a_at) / RFU DUSP10 (11751237_a_at) / Fold change /veh DUSP10 (11751237_a_at) / RFU ID3 (11757404_x_at) / Fold change /veh ID3 (11757404_x_at) / RFU PLEKHG5 (11737974_s_at) / Fold change /veh PLEKHG5 (11737974_s_at) / RFU LRRC4B (11730491_at) / Fold change /veh LRRC4B (11730491_at) / RFU GIMAP4 (11747438_a_at) / Fold change /veh GIMAP4 (11747438_a_at) / RFU KRT8 (11758183_x_at) / Fold change /veh KRT8 (11758183_x_at) / RFU CNN1 (11734310_a_at) / Fold change /veh CNN1 (11734310_a_at) / RFU VPS37D (11726825_at) / Fold change /veh VPS37D (11726825_at) / RFU C10orf10 (11716522_x_at) / Fold change /veh C10orf10 (11716522_x_at) / RFU KIR2DL2 /// KIR2DL4 /// KIR2DL5A /// KIR2DL5B /// KIR2DS1 /// KIR2DS2 /// KIR2DS3 /// KIR2DS4 /// KIR3DL3 /// KIR3DL3 /// KIR3DS1 (11738374_at) / Fold change /veh KIR2DL2 /// KIR2DL4 /// KIR2DL5A /// KIR2DL5B /// KIR2DS1 /// KIR2DS2 /// KIR2DS3 /// KIR2DS4 /// KIR3DL3 /// KIR3DL3 /// KIR3DS1 (11738374_at) / RFU C1QL1 (11718748_at) / Fold change /veh C1QL1 (11718748_at) / RFU TMPRSS4 (11747572_a_at) / Fold change /veh TMPRSS4 (11747572_a_at) / RFU HAMP (11756126_x_at) / Fold change /veh HAMP (11756126_x_at) / RFU RNFT2 (11725882_a_at) / Fold change /veh RNFT2 (11725882_a_at) / RFU NR4A2 (11747474_a_at) / Fold change /veh NR4A2 (11747474_a_at) / RFU ABCC12 (11746883_a_at) / Fold change /veh ABCC12 (11746883_a_at) / RFU TMEM136 (11760407_x_at) / Fold change /veh TMEM136 (11760407_x_at) / RFU CLDN22 /// WWC2 (11732394_at) / Fold change /veh CLDN22 /// WWC2 (11732394_at) / RFU HLA-DPB1 (11760878_x_at) / Fold change /veh HLA-DPB1 (11760878_x_at) / RFU SPINT1 (11716480_a_at) / Fold change /veh SPINT1 (11716480_a_at) / RFU GAP43 (11754022_s_at) / Fold change /veh GAP43 (11754022_s_at) / RFU A4GNT (11735810_at) / Fold change /veh A4GNT (11735810_at) / RFU PRB3 (11715151_x_at) / Fold change /veh PRB3 (11715151_x_at) / RFU TUBB4B (11761932_at) / Fold change /veh TUBB4B (11761932_at) / RFU CAPN14 (11732068_a_at) / Fold change /veh CAPN14 (11732068_a_at) / RFU TMCC2 (11721928_a_at) / Fold change /veh TMCC2 (11721928_a_at) / RFU IRGQ (11745062_a_at) / Fold change /veh IRGQ (11745062_a_at) / RFU FAM174B (11720279_a_at) / Fold change /veh FAM174B (11720279_a_at) / RFU TMPRSS4 (11748680_a_at) / Fold change /veh TMPRSS4 (11748680_a_at) / RFU FAM212B (11763350_a_at) / Fold change /veh FAM212B (11763350_a_at) / RFU PLEKHG5 (11743358_a_at) / Fold change /veh PLEKHG5 (11743358_a_at) / RFU ZSCAN30 (11745921_a_at) / Fold change /veh ZSCAN30 (11745921_a_at) / RFU CMKLR1 (11741424_a_at) / Fold change /veh CMKLR1 (11741424_a_at) / RFU LOC101060620 /// MAPK8IP1 (11723275_at) / Fold change /veh LOC101060620 /// MAPK8IP1 (11723275_at) / RFU SPTSSB (11747773_x_at) / Fold change /veh SPTSSB (11747773_x_at) / RFU PRSS12 (11739890_at) / Fold change /veh PRSS12 (11739890_at) / RFU BIN1 (11741810_x_at) / Fold change /veh BIN1 (11741810_x_at) / RFU WNT11 (11732464_a_at) / Fold change /veh WNT11 (11732464_a_at) / RFU C10orf10 (11716521_a_at) / Fold change /veh C10orf10 (11716521_a_at) / RFU C5orf56 (11738089_at) / Fold change /veh C5orf56 (11738089_at) / RFU CYB561 (11721691_x_at) / Fold change /veh CYB561 (11721691_x_at) / RFU ANKRD19P (11752326_a_at) / Fold change /veh ANKRD19P (11752326_a_at) / RFU OR2T12 /// OR2T33 /// OR2T8 (11738714_s_at) / Fold change /veh OR2T12 /// OR2T33 /// OR2T8 (11738714_s_at) / RFU VCAN (11748164_a_at) / Fold change /veh VCAN (11748164_a_at) / RFU JSRP1 (11732532_at) / Fold change /veh JSRP1 (11732532_at) / RFU KRTAP10-11 (11738290_x_at) / Fold change /veh KRTAP10-11 (11738290_x_at) / RFU MYO3A (11730013_a_at) / Fold change /veh MYO3A (11730013_a_at) / RFU EBF3 (11725865_a_at) / Fold change /veh EBF3 (11725865_a_at) / RFU CAMK2N1 (11719241_x_at) / Fold change /veh CAMK2N1 (11719241_x_at) / RFU C5orf56 (11738088_a_at) / Fold change /veh C5orf56 (11738088_a_at) / RFU OLFML3 (11715873_a_at) / Fold change /veh OLFML3 (11715873_a_at) / RFU LOC100653217 /// NTM (11731650_a_at) / Fold change /veh LOC100653217 /// NTM (11731650_a_at) / RFU MAPK11 (11762145_a_at) / Fold change /veh MAPK11 (11762145_a_at) / RFU FIZ1 (11724087_x_at) / Fold change /veh FIZ1 (11724087_x_at) / RFU OASL (11726364_x_at) / Fold change /veh OASL (11726364_x_at) / RFU SOX15 (11748057_x_at) / Fold change /veh SOX15 (11748057_x_at) / RFU CD79A (11719716_a_at) / Fold change /veh CD79A (11719716_a_at) / RFU HIST1H1D (11736915_at) / Fold change /veh HIST1H1D (11736915_at) / RFU CASKIN2 (11723855_a_at) / Fold change /veh CASKIN2 (11723855_a_at) / RFU LOC730098 (11760151_x_at) / Fold change /veh LOC730098 (11760151_x_at) / RFU OR4N2 (11742367_at) / Fold change /veh OR4N2 (11742367_at) / RFU PRRT2 (11749266_a_at) / Fold change /veh PRRT2 (11749266_a_at) / RFU SNX32 (11753110_a_at) / Fold change /veh SNX32 (11753110_a_at) / RFU CDHR5 (11726645_a_at) / Fold change /veh CDHR5 (11726645_a_at) / RFU RCAN1 (11760418_a_at) / Fold change /veh RCAN1 (11760418_a_at) / RFU FAM167A (11723789_a_at) / Fold change /veh FAM167A (11723789_a_at) / RFU FAM26E (11764081_at) / Fold change /veh FAM26E (11764081_at) / RFU ISYNA1 (11749810_s_at) / Fold change /veh ISYNA1 (11749810_s_at) / RFU ACY1 (11761880_at) / Fold change /veh ACY1 (11761880_at) / RFU 11764098_at / Fold change /veh 11764098_at / RFU SAMD14 (11745864_x_at) / Fold change /veh SAMD14 (11745864_x_at) / RFU NPB (11741838_a_at) / Fold change /veh NPB (11741838_a_at) / RFU TMPRSS6 (11731388_a_at) / Fold change /veh TMPRSS6 (11731388_a_at) / RFU KRTAP10-2 (11738614_at) / Fold change /veh KRTAP10-2 (11738614_at) / RFU ARHGAP8 /// PRR5-ARHGAP8 (11727945_x_at) / Fold change /veh ARHGAP8 /// PRR5-ARHGAP8 (11727945_x_at) / RFU KRTAP5-7 /// NADSYN1 (11734609_at) / Fold change /veh KRTAP5-7 /// NADSYN1 (11734609_at) / RFU RASL12 (11751679_a_at) / Fold change /veh RASL12 (11751679_a_at) / RFU CDKN2B (11736163_a_at) / Fold change /veh CDKN2B (11736163_a_at) / RFU PRF1 (11729649_at) / Fold change /veh PRF1 (11729649_at) / RFU, ZNF638 /// ZNF638-IT1 / Fold change vs veh, ZNF638 /// ZNF638-IT1 / RFU, PANK3 / Fold change vs veh, PANK3 / RFU, SH3YL1 / Fold change vs veh, SH3YL1 / RFU, ZEB2 / Fold change vs veh, ZEB2 / RFU, NRIP1 / Fold change vs veh, NRIP1 / RFU, PTTG1IP / Fold change vs veh, PTTG1IP / RFU, CAPN2 / Fold change vs veh, CAPN2 / RFU, MED14 / Fold change vs veh, MED14 / RFU, SNORA58 / Fold change vs veh, SNORA58 / RFU, C1orf63 / Fold change vs veh, C1orf63 / RFU, LRRFIP1 / Fold change vs veh, LRRFIP1 / RFU, NDUFAF7 / Fold change vs veh, NDUFAF7 / RFU, SLC12A2 / Fold change vs veh, SLC12A2 / RFU, IBTK / Fold change vs veh, IBTK / RFU, ESF1 / Fold change vs veh, ESF1 / Fold change vs veh, TMEM50B / RFU, TAOK1 / Fold change vs veh, TAOK1 / RFU, ACBD3 / Fold change vs veh, ACBD3 / RFU, TMA16 / Fold change vs veh, TMA16 / RFU, RWDD3 / Fold change vs veh, RWDD3 / RFU, BCAT1 / Fold change vs veh, BCAT1 / RFU, EDEM3 / Fold change vs veh, EDEM3 / RFU, TMEM33 / Fold change vs veh, TMEM33 / RFU, WDR75 / Fold change vs veh, WDR75 / RFU, AHCTF1 / Fold change vs veh, AHCTF1 / RFU, TFRC / Fold change vs veh, TFRC / RFU, ZDHHC17 / Fold change vs veh, ZDHHC17 / RFU, NOM1 / Fold change vs veh, NOM1 / RFU, ARL8B / Fold change vs veh, ARL8B / RFU, ZBTB11 / Fold change vs veh, ZBTB11 / RFU, TAMM41 / Fold change vs veh, TAMM41 / RFU, KIAA1704 /// LOC100996395 / Fold change vs veh, KIAA1704 /// LOC100996395 / RFU, ING1 / Fold change vs veh, ING1 / RFU, TRMT61B / Fold change vs veh, TRMT61B / RFU, FUBP3 / Fold change vs veh, FUBP3 / RFU, TP53 / Fold change vs veh, TP53 / RFU, TNKS2 / Fold change vs veh, TNKS2 / RFU, ZFP14 / Fold change vs veh, ZFP14 / RFU, ACTR2 / Fold change vs veh, ACTR2 / RFU, PPP3R1 / Fold change vs veh, PPP3R1 / RFU, PIK3R1 / Fold change vs veh, PIK3R1 / RFU, HNRNPA1 / Fold change vs veh, HNRNPA1 / RFU, RNF170 / Fold change vs veh, RNF170 / RFU, ZNF28 / Fold change vs veh, ZNF28 / RFU, RNGTT / Fold change vs veh, RNGTT / RFU, OGT / Fold change vs veh, OGT / RFU, BRD1 / Fold change vs veh, BRD1 / RFU, MARS / Fold change vs veh, MARS / RFU, ZNF655 / Fold change vs veh, ZNF655 / RFU, FAHD1 / Fold change vs veh, FAHD1 / RFU, BDP1 / Fold change vs veh, BDP1 / RFU, LRRCC1 / Fold change vs veh, LRRCC1 / RFU, ARID1A / Fold change vs veh, ARID1A / RFU, ZNF146 / Fold change vs veh, ZNF146 / RFU, ZNF330 / Fold change vs veh, ZNF330 / RFU, GPN3 / Fold change vs veh, GPN3 / RFU, C9orf123 / Fold change vs veh, C9orf123 / RFU, N4BP2L2 / Fold change vs veh, N4BP2L2 / RFU, ARFIP1 / Fold change vs veh, ARFIP1 / RFU, FAM179B / Fold change vs veh, FAM179B / RFU, BCL10 / Fold change vs veh, BCL10 / RFU, UHRF1BP1L / Fold change vs veh, UHRF1BP1L / RFU, BET1 / Fold change vs veh, BET1 / RFU, CNOT2 / Fold change vs veh, CNOT2 / RFU, ZNF268 / Fold change vs veh, ZNF268 / Fold change vs veh, ZNF507 / RFU, DGCR2 / Fold change vs veh, DGCR2 / RFU, WDSUB1 / Fold change vs veh, WDSUB1 / Fold change vs veh, HSP90B1 /// MIR3652 / RFU, ADSS / Fold change vs veh, ADSS / RFU, GK / Fold change vs veh, GK / RFU, ZNF148 / Fold change vs veh, ZNF148 / RFU, TAF9 / Fold change vs veh, TAF9 / RFU, SLC1A5 / Fold change vs veh, SLC1A5 / RFU, SLMO2 / Fold change vs veh, SLMO2 / RFU, ABCC4 / Fold change vs veh, ABCC4 / RFU, LOC101060439 /// RAP1B / Fold change vs veh, LOC101060439 /// RAP1B / RFU, RFX7 / Fold change vs veh, RFX7 / RFU, GTPBP10 / Fold change vs veh, GTPBP10 / RFU, CNEP1R1 / Fold change vs veh, CNEP1R1 / RFU, BIVM-ERCC5 /// ERCC5 / Fold change vs veh, BIVM-ERCC5 /// ERCC5 / RFU, ILF3 / Fold change vs veh, ILF3 / RFU 11762660_at / Fold change /veh 11762660_at / RFU VCAN (11757783_s_at) / Fold change /veh VCAN (11757783_s_at) / RFU DDX43 (11728927_at) / Fold change /veh DDX43 (11728927_at) / RFU KRT8 (11758188_x_at) / Fold change /veh KRT8 (11758188_x_at) / RFU NKD1 (11759106_at) / Fold change /veh NKD1 (11759106_at) / RFU SRD5A1 (11742802_a_at) / Fold change /veh SRD5A1 (11742802_a_at) / RFU TPSAB1 /// TPSB2 (11721975_s_at) / Fold change /veh TPSAB1 /// TPSB2 (11721975_s_at) / RFU GSTM3 (11746129_a_at) / Fold change /veh GSTM3 (11746129_a_at) / RFU IL23R (11737362_x_at) / Fold change /veh IL23R (11737362_x_at) / RFU TMEM51 (11727254_a_at) / Fold change /veh TMEM51 (11727254_a_at) / RFU PIWIL2 (11732686_x_at) / Fold change /veh PIWIL2 (11732686_x_at) / RFU ORM1 (11744905_x_at) / Fold change /veh ORM1 (11744905_x_at) / RFU CCDC152 (11743942_at) / Fold change /veh CCDC152 (11743942_at) / RFU ECM1 (11717891_a_at) / Fold change /veh ECM1 (11717891_a_at) / RFU IL23R (11748794_a_at) / Fold change /veh IL23R (11748794_a_at) / RFU TNFAIP8L3 (11732012_x_at) / Fold change /veh TNFAIP8L3 (11732012_x_at) / RFU MBOAT4 (11741988_at) / Fold change /veh MBOAT4 (11741988_at) / RFU 11764193_at / Fold change /veh 11764193_at / RFU TMEM53 (11763286_at) / Fold change /veh TMEM53 (11763286_at) / RFU MAGEB2 (11727129_at) / Fold change /veh MAGEB2 (11727129_at) / RFU TMEM200A (11744735_a_at) / Fold change /veh TMEM200A (11744735_a_at) / RFU CCDC152 (11751479_a_at) / Fold change /veh CCDC152 (11751479_a_at) / RFU FAM211A (11726209_a_at) / Fold change /veh FAM211A (11726209_a_at) / RFU RGS16 (11746705_a_at) / Fold change /veh RGS16 (11746705_a_at) / RFU VCAN (11755009_s_at) / Fold change /veh VCAN (11755009_s_at) / RFU RHOB (11743442_s_at) / Fold change /veh RHOB (11743442_s_at) / RFU RGS16 (11720943_a_at) / Fold change /veh RGS16 (11720943_a_at) / RFU RGS16 (11720944_at) / Fold change /veh RGS16 (11720944_at) / RFU, VPS4B / Fold change vs veh, VPS4B / RFU, CREB1 / Fold change vs veh, CREB1 / RFU, DNAJC13 / Fold change vs veh, DNAJC13 / RFU, GNAQ / Fold change vs veh, GNAQ / RFU, CDK5R1 / Fold change vs veh, CDK5R1 / RFU, ZRANB3 / Fold change vs veh, ZRANB3 / RFU, CUL4A / Fold change vs veh, CUL4A / RFU, CCNY / Fold change vs veh, CCNY / RFU, UFL1 / Fold change vs veh, UFL1 / RFU, COG3 / Fold change vs veh, COG3 / RFU, DIAPH2 / Fold change vs veh, DIAPH2 / RFU, SKA2 / Fold change vs veh, SKA2 / RFU, AFF3 / Fold change vs veh, AFF3 / RFU, LMF1 / Fold change vs veh, LMF1 / RFU, IPO11 / Fold change vs veh, IPO11 / RFU, DFFB / Fold change vs veh, DFFB / RFU, FOXP1 / Fold change vs veh, FOXP1 / RFU, CARD8 / Fold change vs veh, CARD8 / RFU, STRN3 / Fold change vs veh, STRN3 / RFU, ADK / Fold change vs veh, ADK / RFU, RASSF2 / Fold change vs veh, RASSF2 / RFU, WIPF1 / Fold change vs veh, WIPF1 / RFU, LARP1B / Fold change vs veh, LARP1B / RFU, RASA1 / Fold change vs veh, RASA1 / RFU, RB1 / Fold change vs veh, RB1 / RFU, PPFIA1 / Fold change vs veh, PPFIA1 / RFU, MAT2A / Fold change vs veh, MAT2A / RFU, CCT5 / Fold change vs veh, CCT5 / RFU, WDR92 / Fold change vs veh, WDR92 / RFU, CUX1 / Fold change vs veh, CUX1 / RFU, TTC7A / Fold change vs veh, TTC7A / RFU, TMEM135 / Fold change vs veh, TMEM135 / RFU, DEPTOR / Fold change vs veh, DEPTOR / RFU, CPM / Fold change vs veh, CPM / RFU, DNAJB6 / Fold change vs veh, DNAJB6 / RFU, CACNA2D3 / Fold change vs veh, CACNA2D3 / RFU, DTX4 / Fold change vs veh, DTX4 / RFU, TFCP2 / Fold change vs veh, TFCP2 / RFU, GMCL1 /// GMCL1P1 / Fold change vs veh, GMCL1 /// GMCL1P1 / RFU, AEBP2 / Fold change vs veh, AEBP2 / RFU, SNHG1 /// SNORD22 /// SNORD25 /// SNORD26 /// SNORD27 /// SNORD28 /// SNORD29 /// SNORD31 / Fold change vs veh, SNHG1 /// SNORD22 /// SNORD25 /// SNORD26 /// SNORD27 /// SNORD28 /// SNORD29 /// SNORD31 / Fold change (Aza/veh), C12orf56 (ProbeSet 11735607_a_at) / Fold change (ACY-1035/veh), C12orf56 (ProbeSet 11735607_a_at) / Fold change (Aza/veh), FGFR1OP (ProbeSet 11751329_s_at) / Fold change (ACY-1035/veh), FGFR1OP (ProbeSet 11751329_s_at) / Fold change (Aza/veh), VPS36 (ProbeSet 11739960_a_at) / Fold change (ACY-1035/veh), VPS36 (ProbeSet 11739960_a_at) / RFU SYPL1 (11715823_x_at) / Fold change /veh SYPL1 (11715823_x_at) / RFU IGFBP7 (11715501_s_at) / Fold change /veh IGFBP7 (11715501_s_at) / RFU REEP3 (11722064_at) / Fold change /veh REEP3 (11722064_at) / RFU IGLL1 (11728026_x_at) / Fold change /veh IGLL1 (11728026_x_at): dose or concentration left out as unconfirmed
Conditions: ProbeSet 11763895_x_at; LIST B

## Nc1ncn([C@@H]2O[C@H](CO)[C@@H](O)[C@H]2O)c(=O)n1 [azacitidine]
  RFU, SNORA58: 17.25 RFU
